From patent US8309734B2 (Hoffmann-La Roche Inc., priority 2008, dated 2012)
pEC50: −log10 of the molar value.

Target: T1, human GPBAR1 receptor (Homo sapiens, UniProt Q8TDU6)
T1 construct: expressed in transfected cells
T1 sequence (Q8TDU6 1-330): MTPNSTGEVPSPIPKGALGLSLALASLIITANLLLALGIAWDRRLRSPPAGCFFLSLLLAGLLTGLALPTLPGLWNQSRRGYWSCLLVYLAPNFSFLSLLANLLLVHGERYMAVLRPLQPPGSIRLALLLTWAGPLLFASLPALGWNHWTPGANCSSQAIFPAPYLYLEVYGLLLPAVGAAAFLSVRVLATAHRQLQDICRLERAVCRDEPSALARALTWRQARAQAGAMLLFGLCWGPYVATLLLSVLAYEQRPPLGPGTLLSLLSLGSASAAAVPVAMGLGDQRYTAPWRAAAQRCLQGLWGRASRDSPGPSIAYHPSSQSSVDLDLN
Assay: functional cAMP assay in CHO-dhfr(minus) cells expressing human GPBAR1 receptors
Assay type: cell-based
Conditions: cAMP increase (TR-FRET) in CHO-dhfr(minus) cells expressing human GPBAR1; compounds incubated 30 min at 30° C.

O=C(c1ccncc1Oc1cc(Cl)ccc1Cl)N1CCOc2ccccc21 [Example 185, [3-(2,5-Dichloro-phenoxy)-pyridin-4-yl]-(2,3-dihydro-benzo[1,4]oxazin-4-yl)-methanone]
pEC50: 7.04
